What was measured:
[1] = test system: LLC tumors in NOD-SCID mice; experiment: Growth of LLC tumors in NOD-SCID mice treated with lipofermata; type: in vivo, mouse; details: lipofermata 2 mg/kg twice per day s.c.
Procedure: (§1) FIG. 4A-FIG. 4E, Treatments with lipofermata (2 mg kg^−1 twice per day subcutaneously) started 8-10 days after tumor injection. Anti-CTLA4 antibody (200 μg per mouse, intraperitoneally) was administrated at days 7 and 11 after tumor injection, and anti-CSF1R antibody ([…] per mouse, intraperitoneally) was administered every other day, starting the day after tumor injection. FIG. 4A, Growth of indicated tumors in C57BL/6 mice treated with lipofermata. Representative of two independent experiments (n=4-5 mice per group). FIG. 4B, Growth of LLC tumors in NOD-SCID mice treated with lipofermata (n=5). FIG. 4C, Growth of LLC tumors in mice depleted of CD8 T cells and treated with lipofermata (n=5). FIG. 4D, Growth of LLC tumors in mice treated with anti-CTLA4 antibody and lipofermata (n=5). FIG. 4E, Growth of LLC tumors in mice treated with CSF1R inhibitor and lipofermata (n=5). Data are mean±se.m. *P<0.05, **P<0.01, ***P<0.001, ****P<0.0001 (differences from untreated […] and between treated groups), two-way ANOVA with corrections for multiple comparison. NS, not significant.
5×10^5 tumor cells were injected s.c. into mice, which formed tumors with a 1.5-cm diameter within 2-3 weeks of injection. Lipofermata was administrated s.c. at dose of 2 mg/kg twice per day. As a control, mice were treated with vehicle alone (DMSO+30% v/v Kolliphor). […]

[2] = test system: tumor-associated antigen (E7-derived peptide)-specific CD8+ T cells; experiment: Antigen specific CD8 T cells in draining lymph nodes of TC-1 tumor-bearing mice (MHC tetramer flow cytometry); type: in vivo, mouse; details: TC-1 model; lipofermata treatment
Procedure: FIGS. 13A-FIG. 13E show the effect of lipofermata treatment on tumor-bearing mice. FIG. 13A, MTT assay after three-day incubation of tumor cells with indicated concentration of lipofermata. FIG. 13B, Percentage and absolute number of tumor-associated antigen (E7-derived peptide)-specific CD8^+ T cells in draining lymph nodes of mice bearing TC-1 tumor and treated with lipofermata (n=3). FIG. 13C, Growth of TC-1 tumors in mice treated with CTLA4 antibody and lipofermata (n=5). FIG. 13D, CD8^+ T cell infiltration of TC-1 tumors in mice treated with CTLA4 antibody and lipofermata. FIG. 13E, Growth of TC-1 tumors in mice treated with PD1 antibody and lipofermata (n=5). […]
Lymph nodes (LNs) were obtained from TB mice and digested for 30 min at 37° C. with collagenase A (0.5 mg/ml; Sigma Aldrich), Dnase I (0.2 mg/ml, Roche), diluted in HBSS with Ca^2+/Mg^2+ and 20 mM EDTA (Invitrogen) was added 5 min at room temperature to stop the reaction. CD8^+ T cells were isolated from LNs of TB mice using EasySep Mouse CD8+ T Cell Enrichment Kit (STEMCELL) and stimulated with anti CD3 and anti CD28 antibodies (BD Biosciences) for 24 h and IFNγ was analyzed by ELISpot (Mabtech), accordingly to manufacturer's instructions. T cell proliferation was evaluated by flow cytometry using CSFE (BioLegend). […]

EL-4 tumor cells = experiment: MTT assay after three-day incubation of tumor cells with lipofermata; type: cell-based; details: EL-4 cells, range of concentrations corresponding to the dose used in vivo (0.2 mg/ml)
Procedure: (§2) FIGS. 13A-FIG. 13E show the effect of lipofermata treatment on tumor-bearing mice. FIG. 13A, MTT assay after three-day incubation of tumor cells with indicated concentration of lipofermata. FIG. 13B, Percentage and absolute number of tumor-associated antigen (E7-derived peptide)-specific CD8^+ T cells in draining lymph nodes of mice bearing TC-1 tumor and treated with lipofermata (n=3). FIG. 13C, Growth of TC-1 tumors in mice treated with CTLA4 antibody and lipofermata (n=5). FIG. 13D, CD8^+ T cell infiltration of TC-1 tumors in mice treated with CTLA4 antibody and lipofermata. FIG. 13E, Growth of TC-1 tumors in mice treated with PD1 antibody and lipofermata (n=5). Data are mean±s.d. *P<0.05, **P<0.01, ***P<0.001, ****P<0.0001, two-sided Student's t-test (FIG. 13B) or two-way ANOVA test with correction for repeated measurements (FIG. 13E).
(§3) Tumor cell lines: EL4 (lymphoma), LLC (Lewis Lung Carcinoma), CT26 (colon carcinoma), TC-1 (HPV16 E6/E7 expressing tumor cell line) were obtained from ATCC and F244 (sarcoma) was kindly provided by Dr. R. Schreiber (Washington University, St. Lois, Mo.). All cells were maintained in DMEM medium supplemented with 10% fetal bovine serum (FBS, Sigma-Aldrich, St. Louis, Mo.) at 37° C., 5% CO2. Tumor cells were injected subcutaneously (s.c.) at 5×10^5 cells per mouse. […]

LLC tumor cells = experiment: as above; type: cell-based; details: range of concentrations corresponding to the dose used in vivo (0.2 mg/ml)
Procedure: as §2, §3

LLC tumors = experiment: Growth of LLC tumors in mice (lipofermata alone, CD8 T cell depletion, combination with antibodies); type: in vivo, mouse
Procedure: as §1
5×10^5 tumor cells were injected s.c. into mice, which formed tumors with a 1.5-cm diameter within 2-3 weeks of injection. Lipofermata was administrated s.c. at dose of 2 mg/kg twice per day. As a control, mice were treated with vehicle alone (DMSO+30% v/v Kolliphor). Treatments with lipofermata started 8-10 days after tumors injections. CSF1R antibody (BioXcell, 300 μg/mouse) was administered every other day starting next day after tumor injection and continued until the mice were sacrificed. PD-1 antibody (clone RMP1-14, BioXcell, 200 μg/mouse) was administered twice a week started 10-12 days after tumor injection. CTLA4-IgG2a (BioXcell, 200 μg/mouse) was administered at day 7 and day 11.
(§4) Statistical analysis was performed using unpaired two-tailed Student's t-test with significance determined at 0.05. […] Tumor growth was evaluated using two-way Anova test with Bonferroni correction for multiple comparisons.

tumors in C57BL/6 mice = experiment: Growth of tumors in C57BL/6 mice treated with lipofermata (four tumor models); type: in vivo, mouse; details: four tested tumor models, lipofermata 2 mg/kg twice per day s.c., started 8-10 days after tumor injection
Procedure: as §1, with “significant. […]” for “significant.”
as §4

With `O=C1Nc2ccc(Br)cc2C12NN=C(c1ccccc1)S2` (stereo not drawn) [lipofermata, 5′-bromo-5-phenyl-spiro[3H-1,3,4-thiadiazole-2,3′-indoline]-2′-one] the “tumor growth delay effect in immune deficient mice” value [1] was “this effect was absent”, the “absolute numbers of antigen specific T cells in draining lymph nodes” value [2] was “increased” and the “percentage of antigen specific T cells in draining lymph nodes” value [2] was “increased”. The “proliferation of tumor cells in vitro (MTT)” value (EL-4 tumor cells) was “did not affect proliferation”, the “proliferation of tumor cells in vitro (MTT)” value (LLC tumor cells) was “did not affect proliferation” and the “antitumor effect (LLC tumor growth)” value (LLC tumors; LLC bearing mice, lipofermata 2 mg/kg twice per day s.c., anti-CTLA4 200 μg/mouse days 7 and 11, CSF1R antibody 300 μg/mouse every other day) was “had an antitumor effect”. The “blocking of tumor progression” value (LLC tumors; LLC bearing mice, single agents) was “neither blocked tumor progression”, the “tumor growth effect after depletion of CD8+ T cells” value (LLC tumors; LLC tumors, immune competent mice depleted of CD8 T cells, lipofermata 2 mg/kg twice per day s.c.) was “abrogated the effect of lipofermata” and the tumor growth (tumors in C57BL/6 mice) was “significant delay of tumor growth”.
